Experimental data taken from US10433556B2, “Treatment and/or prophylaxis of storage diseases of harvested material” (priority 2011, dated 2019).

Experiments:
birds and ducks = settings: in vivo; cited from earlier work
[1] = tested on: silver scurf on potato tubers; test: Field trial 2010/2011 Germany: Proradix in combination with Imazalil, affection by silver scurf after storage; type: in vivo, Helminthosporium solani; settings: exclusively Imazalil at the laying and the storage; vs untreated potatoes; FIG. 5 third column
Method: For the treatment of the seed potato at or before the laying into the ground soil Proradix is used as a liquid mordant [Proradix WG (LF 4816-00); Sourcon […] GmbH & Co. KG, Tübingen, Germany], according to the information of the manufacturer in a concentration of 60 g/ha via the spraying method by using a ULV spraying device. Before the storage of the potatoes 20 g of Proradix WG is dissolved in a maximum of 2 l of water per barrel. The application onto the potatoes is also effected by means of a ULV spraying device. The laying of the potato and, if applicable, the treatment with Proradix and/or Imazalil is carried out in springtime and the harvest and storage and, if applicable, the treatment with Proradix and/or Imazalil is carried out in fall of the same year. In a field trial conducted in the years of 2010 and 2011 in Germany according to the EPPO guidelines it was examined in detail, whether Proradix can also be effectively used in combination with the chemical of Imazalil. For this purpose a part of the potatoes remain untreated, a part was treated with the chemical of Imazalil at the laying, and a part was treated at the laying and also before the storage with the chemical of Imazalil, and yet another part was treated at the laying with Imazalil and before the storage with Proradix.

Helminthosporium solani [2] = test: Field trial 2010/2011 Netherlands: rate of germination of the spores on the potato tuber; type: in vivo; settings: use of Imazalil; FIG. 3 fourth column
Method: (§1) For the treatment of the seed potato at or before the laying into the ground soil Proradix is used as a liquid mordant [Proradix WG (LF 4816-00); Sourcon […] GmbH & Co. KG, Tübingen, Germany], according to the information of the manufacturer in a concentration of 60 g/ha via the spraying method by using a ULV spraying device. Before the storage of the potatoes 20 g of Proradix WG is dissolved in a maximum of 2 l of water per barrel. The application onto the potatoes is also effected by means of a ULV spraying device. The laying of the potato and, if applicable, the treatment with Proradix and/or Imazalil is carried out in springtime and the harvest and storage and, if applicable, the treatment with Proradix and/or Imazalil is carried out in fall of the same year. In a further field trial conducted in the years of 2010/2011 in the Netherlands according to the EPPO guidelines the influence of Proradix in comparison to the chemical standard of Imazalil on the production of spores of the fungal pathogen of Helminthosporium solani, the initiator of the silver scurf, and the rate of germination of the spores on the potato tuber was examined.

fish = settings: in vivo; cited from earlier work
Helminthosporium solani [3] = test: Field trial 2010/2011 Netherlands: production of spores of the silver scurf pathogen on the potato tuber; type: in vivo; settings: treatment of the potato before the storage; FIG. 2
Method: as §1

## C=CCOC(Cn1ccnc1)c1ccc(Cl)cc1Cl (centres unmarked) [Imazalil]
Birds and ducks
  effect on birds and ducks: causes damages
[1]
  affection by silver scurf after the storage: significantly diminished reduction
Helminthosporium solani [2]
  share of spores able to germinate: half
fish
  toxicity for fish: toxic
Helminthosporium solani [3]
  formation of spores: comparable
